Tests used:
[1] = tested on: CaCo-2 cells; assay: in vitro; assay type: in vitro ADME
Description: CaCo-2 cells grown in tissue culture flasks are trypsinized, suspended in medium, and the suspensions are applied to wells of a collagen-coated BioCoat Cell Environment in 24-well format (BD Biosciences) at 24,500 cells per well. The cells are allowed to grow and differentiate for three weeks, feeding at 2-day intervals.
For Apical to Basolateral (A->B) permeability, the test agent is added at 50 μM to the apical (A) side and amount of permeation is determined on the basolateral (B) side; for Basolateral to Apical (B>A) permeability, the test agent is added at 50 μM to the B side and the amount of permeation is determine on the A side. The A-side buffer contains 100 μM Lucifer yellow dye, in Transport Buffer (1.98 g/L glucose in 10 mM HEPES, 1× Hank's Balanced Salt Solution) pH 6.5, and the B-side buffer is Transport Buffer, pH 7.4. CaCo-2 cells are incubated with these buffers for 2 h., and the receiver side buffer is removed for analysis by liquid chromatography-mass spectrometry (LC/MS/MS).
Additionally, several control compounds are tested in the identical assay.
To verify that CaCo-2 cell monolayers are properly formed, aliquots of the cell buffers are analyzed by fluorescence to determine the transport of the impermeable dye Lucifer Yellow.
Data are expressed as permeability (Papp): […]
where dQ/dt is the rate of permeation, C0 is the initial concentration of test agent, and A is the area of the monolayer.
In bidirectional permeability studies, the asymmetry index (AI) or efflux ratio is also calculated:
An AI>1 indicated a potential substrate for PGP or other active transporters.
Samples are analyzed by LC/MS/MS using either an Agilent 6410 mass spectrometer coupled with an Agilent 1200 high performance liquid chromatography (HPLC) and a CTC PAL chilled autosampler, all controlled by MassHunter software (Agilent), or an ABI2000 mass spectrometer coupled with an Agilent 1100 HPLC and a CTC PAL chilled autosampler, all controlled by Analyst software (ABI). After separation on a C18 reverse phase HPLC column (Agilent, Waters, or equivalent) using an acetonitrile-water gradient system, peaks are analyzed by mass spectrometry (MS) using electrospray ionization (ESI) in multiple reaction monitoring (MRM) mode.
The signal is optimized for each compound by ESI positive or negative ionization mode. A MS2 selected ion monitoring (SIM) scan is used to optimize the precursor ion and a product ion analysis is used to identify the best fragment for analysis and to optimize the collision energy.

[2] = tested on: SMN2-luciferase reporter; assay: SMN2-luciferase reporter qHTS assay; assay type: cell-based, human; conditions: SMN2-luc reporter, FIG. 1
Method in brief: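 SMN2 exon-7 splicing firefly-luciferase reporter cell line, ~2000 cells/well in phenol-red-free DMEM with 10% serum, allowed to adhere 10–12 h, then exposed to compounds for 2 days at 37 C, 5% CO2. Seven-point five-fold dilution series (e.g. 50 μM to 3.2 nM), OneGlo luminescence read, curves fitted to Hill equation.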

## NC(=O)C1CCN(c2nc(-c3ccc(Br)cc3)cs2)CC1 [MLS000698854]
[1]
  Caco-2 permeability (in words): highly permeable
  Pgp substrate (in words): no indication of being a Pgp substrate
  mean A->B Papp: 32.6 10^−6 cm s^−1
  mean B->A Papp: 12.0 10^−6 cm s^−1
[2]
  expression of SMN2 / levels of the full length SMN2 gene (in words): increases the expression of SMN2
